# Positions of bridges follow the written chain, without caps; N, C: chain ends. Non-standard residues stand in square brackets, D forms with d. Residues, ends and D or L forms follow the SMILES beside them. Hyp = O=C(O)[C@@H]1C[C@@H](O)CN1
# Molecular target: N-type calcium channel currents (Cav2.2) in rDRG neurons (Rattus norvegicus, UniProt Q02294)
# Assay: cell-based
# Settings: SEM
# N-type calcium channel currents (Cav2.2) in rDRG neurons, sequence (Q02294 whole entry, looked up): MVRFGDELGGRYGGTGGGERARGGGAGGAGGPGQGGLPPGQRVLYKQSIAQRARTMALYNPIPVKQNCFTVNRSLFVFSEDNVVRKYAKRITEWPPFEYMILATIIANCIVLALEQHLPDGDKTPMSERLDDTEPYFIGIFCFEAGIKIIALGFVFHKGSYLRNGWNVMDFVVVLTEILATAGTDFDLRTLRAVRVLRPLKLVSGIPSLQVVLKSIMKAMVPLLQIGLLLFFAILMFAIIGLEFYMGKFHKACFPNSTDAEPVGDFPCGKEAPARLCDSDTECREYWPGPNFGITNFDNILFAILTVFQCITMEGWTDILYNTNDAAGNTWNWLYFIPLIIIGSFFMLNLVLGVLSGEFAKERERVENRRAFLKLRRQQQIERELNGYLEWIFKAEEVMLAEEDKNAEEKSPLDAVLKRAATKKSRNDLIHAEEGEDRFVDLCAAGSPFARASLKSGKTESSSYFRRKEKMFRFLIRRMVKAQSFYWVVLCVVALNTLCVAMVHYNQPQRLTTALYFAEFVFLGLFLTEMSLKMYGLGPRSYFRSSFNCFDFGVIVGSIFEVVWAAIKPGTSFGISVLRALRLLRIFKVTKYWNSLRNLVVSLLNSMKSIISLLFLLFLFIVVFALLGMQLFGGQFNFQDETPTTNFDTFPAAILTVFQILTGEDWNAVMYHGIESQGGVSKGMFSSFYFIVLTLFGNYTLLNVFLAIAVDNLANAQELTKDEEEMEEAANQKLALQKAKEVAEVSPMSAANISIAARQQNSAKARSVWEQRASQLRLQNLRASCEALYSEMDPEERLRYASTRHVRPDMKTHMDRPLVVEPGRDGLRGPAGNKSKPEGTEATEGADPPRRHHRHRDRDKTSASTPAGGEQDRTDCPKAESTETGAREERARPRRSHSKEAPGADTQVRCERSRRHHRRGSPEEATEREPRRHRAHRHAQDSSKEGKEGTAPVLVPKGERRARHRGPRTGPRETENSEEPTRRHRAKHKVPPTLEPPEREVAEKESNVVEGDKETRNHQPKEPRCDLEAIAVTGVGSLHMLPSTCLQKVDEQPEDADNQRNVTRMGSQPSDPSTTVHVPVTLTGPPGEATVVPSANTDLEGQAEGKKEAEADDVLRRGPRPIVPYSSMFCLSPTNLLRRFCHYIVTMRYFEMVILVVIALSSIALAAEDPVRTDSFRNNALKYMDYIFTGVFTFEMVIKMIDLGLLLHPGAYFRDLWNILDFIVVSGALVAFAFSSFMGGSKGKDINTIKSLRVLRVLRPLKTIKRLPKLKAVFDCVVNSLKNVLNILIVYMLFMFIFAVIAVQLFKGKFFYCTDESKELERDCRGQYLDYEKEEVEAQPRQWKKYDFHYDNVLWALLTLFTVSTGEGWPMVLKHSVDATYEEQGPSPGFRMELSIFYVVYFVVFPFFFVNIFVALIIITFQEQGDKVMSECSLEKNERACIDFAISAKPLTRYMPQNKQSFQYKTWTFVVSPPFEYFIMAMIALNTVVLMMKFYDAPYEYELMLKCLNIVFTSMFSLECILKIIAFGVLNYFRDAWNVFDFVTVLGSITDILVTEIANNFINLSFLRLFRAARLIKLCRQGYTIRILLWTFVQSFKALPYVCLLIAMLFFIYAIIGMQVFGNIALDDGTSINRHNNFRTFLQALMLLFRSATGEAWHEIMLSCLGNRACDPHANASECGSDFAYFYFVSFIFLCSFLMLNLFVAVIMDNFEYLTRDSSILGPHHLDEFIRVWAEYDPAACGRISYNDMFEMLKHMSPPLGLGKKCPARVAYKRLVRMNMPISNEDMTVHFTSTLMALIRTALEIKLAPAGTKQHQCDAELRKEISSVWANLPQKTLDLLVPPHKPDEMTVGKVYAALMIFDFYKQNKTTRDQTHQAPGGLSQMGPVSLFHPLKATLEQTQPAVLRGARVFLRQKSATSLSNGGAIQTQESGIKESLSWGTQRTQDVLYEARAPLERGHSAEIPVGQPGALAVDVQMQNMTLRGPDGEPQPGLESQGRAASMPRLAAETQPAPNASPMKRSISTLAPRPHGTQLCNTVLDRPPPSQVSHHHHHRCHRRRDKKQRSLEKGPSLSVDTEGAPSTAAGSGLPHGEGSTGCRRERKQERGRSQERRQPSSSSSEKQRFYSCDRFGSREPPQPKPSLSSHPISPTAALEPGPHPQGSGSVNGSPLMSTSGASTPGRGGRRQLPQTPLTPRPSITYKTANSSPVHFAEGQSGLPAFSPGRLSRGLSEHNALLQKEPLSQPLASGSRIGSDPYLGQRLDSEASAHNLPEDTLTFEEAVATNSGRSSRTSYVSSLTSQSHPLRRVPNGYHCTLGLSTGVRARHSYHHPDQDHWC
compound,measurement,value
"CC[C@H](C)[C@@H]1NC(=O)[C@@H]2CSSC[C@@H]3NC(=O)[C@H](CCCCN)NC(=O)[C@H](CO)NC(=O)CNC(=O)[C@@H]4C[C@@H](O)CN4C(=O)[C@@H]4CCCN4C(=O)[C@H](CCCCN)NC(=O)[C@@H](N)CSSC[C@H](NC(=O)[C@H](CSSC[C@@H](C(=O)N[C@@H](CCCNC(=N)N)C(=O)N[C@@H](CCCCN)C(=O)N[C@@H](Cc4ccc(O)cc4)C(=O)N[C@@H](Cc4ccc(O)cc4)C(=O)O)NC(=O)[C@H](CCCNC(=N)N)NC(=O)[C@H](CCCCN)NC(=O)[C@H]([C@@H](C)O)NC(=O)[C@H](Cc4ccc(O)cc4)NC(=O)[C@H](CO)NC1=O)NC(=O)[C@H](CC(=O)O)NC(=O)[C@H](Cc1ccc(O)cc1)NC(=O)[C@H](CCSC)NC(=O)[C@H](CO)NC(=O)[C@@H]1C[C@@H](O)CN1C(=O)[C@H](CO)NC3=O)C(=O)N[C@@H]([C@@H](C)O)C(=O)N[C@@H]([C@@H](C)O)C(=O)N2 [MoVIB-[R13Y]] (H-CKP[Hyp]GSKCS[Hyp]SMYDCCTTCISYTKRCRKYY-OH; disulfide 1-16, 8-19, 15-26)",IC50,900 ± 130 nM

# — paper PMC6128854 (Scientific Reports, 2018)
